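96-well plates; 48 h exposure; 5 concentrations. Endpoints by linear interpolation between flanking doses. Not reached: highest tested concentration assigned. Here, GI50 denotes the concentration required for 50% inhibition of growth. TGI: concentration producing complete growth inhibition.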
What was measured:
Assay in all cases: NCI anticancer screen, dose series, 48 h
A549 NSCLC = system: A549 NSCLC
HCT-116 colon = system: HCT-116 colon
HCT-15 colon = system: HCT-15 colon
HT29 colon = system: HT29 colon
IGROV1 ovarian = system: IGROV1 ovarian
M14 melanoma = system: M14 melanoma
OVCAR-5 ovarian = system: OVCAR-5 ovarian
SF-268 CNS = system: SF-268 CNS
SK-OV-3 ovarian = system: SK-OV-3 ovarian
MDA-N = system: MDA-N

| Structure (SMILES) | TGI (A549 NSCLC) [µM] | TGI (HCT-116 colon) [µM] | TGI (HCT-15 colon) [µM] | TGI (HT29 colon) [µM] | TGI (IGROV1 ovarian) [µM] | TGI (M14 melanoma) [µM] | TGI (OVCAR-5 ovarian) [µM] | TGI (SF-268 CNS) [µM] | TGI (SK-OV-3 ovarian) [µM] | GI50 (A549 NSCLC) [µM] | GI50 (HCT-15 colon) [µM] | GI50 (HT29 colon) [µM] | GI50 (OVCAR-5 ovarian) [µM] | GI50 (SF-268 CNS) [µM] | GI50 (SK-OV-3 ovarian) [µM] | GI50 (HCT-116 colon) [µM] | GI50 (IGROV1 ovarian) [µM] | GI50 (M14 melanoma) [µM] | TGI (MDA-N) [µM] |
| --- | --- | --- | --- | --- | --- | --- | --- | --- | --- | --- | --- | --- | --- | --- | --- | --- | --- | --- | --- |
| COc1cccc2c1C(=O)c1c(O)c3c(c(O)c1C2=O)C[C@@](O)(C(C)=O)CC3S(=O)(=O)O (stereo partly drawn) | > 100 | > 100 | > 100 | > 100 | > 100 | > 100 | > 100 | > 100 | > 100 | – | – | – | – | – | – | – | – | – | – |
| CN(C)Cc1c(O)ccc2c1c1c(n2C)C(=O)c2ccccc2C1=O | > 100 | > 100 | > 100 | 5.19 | 85.2 | > 100 | 74.4 | > 100 | > 100 | – | – | – | – | – | – | – | – | – | – |
| CC1(C)OC[C@H](C(=N)OCc2ccccc2)O1 | > 100 | > 100 | > 100 | > 100 | > 100 | > 100 | > 100 | > 100 | > 100 | – | – | – | – | – | – | – | – | – | – |
| CN(C)C(=O)Oc1c(Br)cc(Br)cc1C(=O)OCc1ccccc1 | > 100 | 29 | > 81.7 | 19.2 | > 100 | – | > 100 | > 100 | > 100 | – | – | – | – | – | – | – | – | – | – |
| COc1cc(C2c3cc4c(cc3OC(NNC(N)=O)C2C)OCO4)cc(OC)c1OC (stereo not drawn) | > 100 | > 36.5 | – | > 100 | > 100 | > 44.9 | > 100 | > 100 | > 100 | – | – | – | – | – | – | – | – | – | – |
| CCc1cc(C)cc2[n+]1CC=C2 | 78.6 | 48.2 | – | 75.2 | – | 80.7 | 56.6 | > 100 | – | – | – | – | – | – | – | – | – | – | – |
| O=C1c2cc(I)ccc2N2CCN=C2N1Cc1ccccc1 | > 100 | > 100 | > 100 | > 100 | > 100 | > 100 | > 100 | > 100 | > 100 | – | – | – | – | – | – | – | – | – | – |
| CCC(C)(C)c1cc(O)c(C(C)(C)CC)cc1O | 11.9 | – | 15.1 | 5.27 | – | – | 17.6 | 15.6 | 14.9 | 3.2 | 3.66 | 2.13 | 4.97 | 3.92 | 4.41 | – | – | – | – |
| O=c1[nH]c(=O)c2ncn(-c3ccc([N+](=O)[O-])cn3)c2[nH]1 | > 100 | > 100 | > 100 | > 100 | – | > 100 | > 100 | > 100 | > 100 | – | – | – | – | – | – | – | – | – | – |
| CC[C@@]1(O)C[C@H](OC2CC(N(C)C)C(O)C(C)O2)c2c(cc3c(c2O)C(=O)c2c(O)ccc(O)c2C3=O)[C@H]1C(=O)OC (stereo partly drawn) | 1.36 | 0.829 | 0.976 | 0.559 | 1.35 | – | 0.836 | 0.68 | 2.37 | – | – | – | – | – | – | – | – | – | – |
| COc1ccc2c(c1)N(Cc1ccc(Cl)cc1)CCC2N1CCCC1=O (stereo not drawn) | 51.5 | > 100 | > 100 | > 100 | > 100 | 17.6 | > 100 | > 100 | – | 4.48 | 4 | 7.2 | 6.6 | 5.41 | – | 5.24 | 3.51 | 4.42 | – |
| O=c1[nH]c2ccccc2c(O)c1Cc1ccccc1 | > 100 | > 100 | > 100 | > 100 | > 100 | – | > 100 | > 100 | – | – | – | – | – | – | – | – | – | – | > 100 |
| CN1CCN(C(=O)CCC(=O)Nc2cc3c(c4ccccc24)-c2ccc4ccccc4c2C3)CC1 | 3.96 | 2.95 | 3.68 | 3.23 | 2.74 | 2.97 | 3.15 | 3.57 | 3.09 | – | – | – | – | – | – | – | – | – | – |
| COC1OCC(O)C(NC(=O)N(C)N=O)C1O (stereo not drawn) | > 100 | > 100 | > 100 | > 100 | > 100 | – | > 100 | > 100 | > 100 | – | – | – | – | – | – | – | – | – | – |
| CCCCCCSc1nc(N)nc2nc[nH]c12 | > 100 | > 100 | > 100 | > 100 | > 100 | – | > 100 | > 100 | 80.8 | – | – | – | – | – | – | – | – | – | – |
| CN(C)CCNC(=O)c1cccc2ccc(-c3ccc(Br)cc3)nc12 | 4.29 | 5.13 | 12.5 | 7.24 | 13.2 | – | 10.2 | 19.1 | 10.6 | – | – | – | – | – | – | – | – | – | – |
| CC(=O)C(=O)NC1/C=C(C)\C=C/C(O)C/C=C(C)\C=C/C(O)CC2OC(=O)C1(C)C(=O)C2C (stereo not drawn) | > 100 | > 100 | > 100 | > 100 | > 100 | – | > 100 | > 100 | > 100 | – | – | – | – | – | – | – | – | – | – |
| CCOC(=O)c1nc2ccc(OC)cc2c2c1Cc1ccccc1-2 | > 100 | > 100 | > 100 | > 100 | > 100 | > 100 | > 100 | > 100 | – | – | – | – | – | – | – | – | – | – | – |

Source: PubChem BioAssay (NCI)
